Reference: PubChem BioAssay AID256 (DTP/NCI, 2004)
“And” between values parts separate entries of the source, which are not always exact repeats. Identical values can stand only once. Toxic doses and inconclusive results are not listed.

Test system: CD2F1 mice, L1210 leukemia ip, survival T/C
Experiment: NCI In Vivo Anticancer Drug Screen. Data for tumor model L1210 Leukemia (intraperitoneal) in CD2F1 (CDF1) mice
Details: higher = longer survival
Summary of the method: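 Transplantable tumor in mice; compound-treated vs vehicle-treated groups. Read-out = treated/control ratio of the measured endpoint.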

[1] = endpoint: mean survival time, dose: 100.0 mg/kg/injection, schedule: Q04DX003 (ip), vehicle: saline with Tween-80
[2] = endpoint: mean survival time, dose: 200.0 mg/kg/injection, schedule: Q04DX003 (ip), vehicle: saline with Tween-80
[3] = endpoint: mean survival time, dose: 400.0 mg/kg/injection, schedule: Q04DX003 (ip), vehicle: saline with Tween-80
[4] = endpoint: mean survival time, dose: 100.0 mg/kg/injection, schedule: Q01DX009 (ip), vehicle: saline with Tween-80
[5] = endpoint: mean survival time, dose: 400.0 mg/kg/injection, schedule: Q01DX009 (ip), vehicle: saline with Tween-80

In the case of C=C(c1ccccc1)C(C)C(=O)OCC (stereo unspecified), the T/C [1] is reported as 103 % of control, the T/C [2] is reported as 103 % of control and the T/C [3] is reported as 100 % of control.

In the case of CC(=O)NCC(O)C(O)C(O)C(O)COC(=O)c1ccccc1 (stereo unspecified), the T/C (endpoint: mean survival time, dose: 100.0 mg/kg/injection, schedule: Q01DX001 (ip), vehicle: saline with Tween-80) is reported as 95 % of control, the T/C (endpoint: mean survival time, dose: 200.0 mg/kg/injection, schedule: Q01DX001 (ip), vehicle: saline with Tween-80) is reported as 95 % of control and the T/C (endpoint: mean survival time, dose: 400.0 mg/kg/injection, schedule: Q01DX001 (ip), vehicle: saline with Tween-80) is reported as 96 % of control.

With COC1OCC(C(C)=O)C(O)C1O (stereo unspecified) the T/C (endpoint: mean survival time, dose: 100.0 mg/kg/injection, schedule: Q01DX001 (ip), vehicle: saline) was 101 % of control, the T/C (endpoint: mean survival time, dose: 200.0 mg/kg/injection, schedule: Q01DX001 (ip), vehicle: saline) was 96 % of control and the T/C (endpoint: mean survival time, dose: 400.0 mg/kg/injection, schedule: Q01DX001 (ip), vehicle: saline) was 95 % of control.

In the case of COC(=O)c1ccccc1NC(=S)NC(=O)COc1ccccc1, the T/C [4] is reported as 97 % of control, the T/C (endpoint: mean survival time, dose: 200.0 mg/kg/injection, schedule: Q01DX009 (ip), vehicle: saline with Tween-80) is reported as 95 % of control and the T/C [5] is reported as 98 % of control.

For C(=Nc1ccc(-c2ccccc2)cc1)c1ccccc1, the T/C [4] was 87 % of control and the T/C [5] was 91 % of control.

c1ccc(N=C2CCCCC2)cc1 was tested, and the T/C (endpoint: mean survival time, dose: 100.0 mg/kg/injection, schedule: Q01DX001 (ip), vehicle: other) was 115 % of control, the T/C (endpoint: mean survival time, dose: 100.0 mg/kg/injection, schedule: Q01DX001 (ip), vehicle: saline + Tween-80 + alcohol) was 98 % of control and the T/C (endpoint: mean survival time, dose: 200.0 mg/kg/injection, schedule: Q01DX001 (ip), vehicle: other) was 93 % of control. For the same molecule, the T/C (endpoint: mean survival time, dose: 200.0 mg/kg/injection, schedule: Q01DX001 (ip), vehicle: saline + Tween-80 + alcohol) was 102 % of control, the T/C (endpoint: mean survival time, dose: 400.0 mg/kg/injection, schedule: Q01DX001 (ip), vehicle: other) was 120 % of control and the T/C (endpoint: mean survival time, dose: 400.0 mg/kg/injection, schedule: Q01DX001 (ip), vehicle: saline + Tween-80 + alcohol) was 103 % of control. The T/C (endpoint: mean survival time, dose: 600.0 mg/kg/injection, schedule: Q01DX001 (ip), vehicle: saline + Tween-80 + alcohol) was 105 % of control.

Cc1nc(N)nc(N)c1N1CCN(c2ccc(C(=O)NC(C(=O)O)C(=O)O)cc2)CC1 was tested, and the T/C (endpoint: median survival time, dose: 1.88 mg/kg/injection, schedule: Q01DX005 (ip), vehicle: Klucel + Tween-80) was 117 % of control, the T/C (endpoint: median survival time, dose: 3.75 mg/kg/injection, schedule: Q01DX005 (ip), vehicle: Klucel + Tween-80) was 152 % of control and the T/C (endpoint: median survival time, dose: 7.5 mg/kg/injection, schedule: Q01DX005 (ip), vehicle: Klucel + Tween-80) was 150 % of control and 163 % of control. For the same molecule, the T/C (endpoint: median survival time, dose: 15.0 mg/kg/injection, schedule: Q01DX005 (ip), vehicle: Klucel + Tween-80) was 167 % of control and 184 % of control and the T/C (endpoint: median survival time, dose: 30.0 mg/kg/injection, schedule: Q01DX005 (ip), vehicle: Klucel + Tween-80) was 181 % of control.

Cc1ccc(C2(C(=O)O)CC2)cc1 was tested, and the T/C [1] was 98 % of control, the T/C [2] was 98 % of control and the T/C [3] was 96 % of control.

In the case of CCCCC#CCOCC(O)CCl (stereo unspecified), the T/C (endpoint: mean survival time, dose: 25.0 mg/kg/injection, schedule: Q01DX009 (ip), vehicle: water) is reported as 95 % of control, the T/C (endpoint: mean survival time, dose: 50.0 mg/kg/injection, schedule: Q01DX009 (ip), vehicle: water) is reported as 107 % of control and the T/C (endpoint: mean survival time, dose: 100.0 mg/kg/injection, schedule: Q01DX009 (ip), vehicle: water) is reported as 103 % of control. The T/C (endpoint: mean survival time, dose: 200.0 mg/kg/injection, schedule: Q01DX009 (ip), vehicle: water) was 100 % of control.

With CC(=O)OC1CC2(O)C(CCC3(C)C(c4ccc(=O)oc4)CCC32O)C2(C)C1=CC(O)C1OC12 (stereo unspecified) the T/C (endpoint: mean survival time, dose: 0.13 mg/kg/injection, schedule: Q01DX009 (sc), vehicle: steriod suspending solution) was 100 % of control, the T/C (endpoint: mean survival time, dose: 0.25 mg/kg/injection, schedule: Q01DX009 (sc), vehicle: steriod suspending solution) was 97 % of control and the T/C (endpoint: mean survival time, dose: 0.5 mg/kg/injection, schedule: Q01DX009 (sc), vehicle: steriod suspending solution) was 100 % of control. The T/C (endpoint: mean survival time, dose: 1.0 mg/kg/injection, schedule: Q01DX009 (sc), vehicle: steriod suspending solution) was 89 % of control.

For O=C(O)C(=O)C(O)C(O)C(O)CO.O=C(O)C(=O)C(O)C(O)C(O)CO.[NH-]C1CCCCC1[NH-].[Pt+2] (stereo unspecified), the T/C (endpoint: median survival time, dose: 3.12 mg/kg/injection, schedule: Q04DX003 (ip), vehicle: saline) was 110 % of control and 111 % of control, the T/C (endpoint: median survival time, dose: 6.25 mg/kg/injection, schedule: Q04DX003 (ip), vehicle: saline) was 115 % of control and 112 % of control and the T/C (endpoint: median survival time, dose: 12.5 mg/kg/injection, schedule: Q04DX003 (ip), vehicle: saline) was 122 % of control. The T/C (endpoint: median survival time, dose: 50.0 mg/kg/injection, schedule: Q04DX003 (ip), vehicle: saline) was 185 % of control and 188 % of control, the T/C (endpoint: median survival time, dose: 100.0 mg/kg/injection, schedule: Q04DX003 (ip), vehicle: saline) was 250 % of control and 270 % of control and the T/C (endpoint: median survival time, dose: 200.0 mg/kg/injection, schedule: Q04DX003 (ip), vehicle: saline) was 175 % of control.

In the case of COc1ccc(NC(=S)N(C)C)cc1, the T/C [1] is reported as 94 % of control, the T/C [2] is reported as 90 % of control and the T/C [3] is reported as 92 % of control.

With NCCCCS(=O)(=O)Nc1ccc(Nc2c3ccccc3nc3cc([N+](=O)[O-])ccc23)cc1 the T/C (endpoint: mean survival time, dose: 50.0 mg/kg/injection, schedule: Q01DX009 (ip), vehicle: saline with Tween-80) was 158 % of control, the T/C [4] was 172 % of control and the T/C [1] was 157 % of control. For the same molecule, the T/C (endpoint: mean survival time, dose: 300.0 mg/kg/injection, schedule: Q04DX003 (ip), vehicle: saline with Tween-80) was 159 % of control and the T/C (endpoint: mean survival time, dose: 400.0 mg/kg/injection, schedule: Q04DX003 (ip), vehicle: saline) was 151 % of control.
